Results taken from publication PMC4774972, “Activity and Predicted Nephrotoxicity of Synthetic Antibiotics Based on Polymyxin B” (Journal of Medicinal Chemistry, 2016).
In brackets after ≈: the same amount, converted by molar mass. Where two headings read alike, the source gives them in different places. Each block holds one compound with its values, some of them ahead of it. Bridge positions count the residues as written; N and C are the ends. Square brackets hold non-standard residues; d marks the D form. Peptide text beside a SMILES is read from it. * marks the point of attachment. Octanoyl = CCCCCCCC(=O)*; Dab = NCC[C@H](N)C(=O)O

Columns and labels:
[1] = tested on: E. coli ATCC 25922; assay: microbe, parasite or virus in culture; assay type: cell-based, Escherichia coli; conditions: MHB, 5 × 10^5 CFU/mL, read visually after 18 h at 37 °C
Experimental: (§1) Bacteria were either obtained from American Type Culture Collection (ATCC; Manassas, VA, USA) or independent academic clinical isolate collections, as listed in Table S2. Bacteria were cultured in nutrient broth (NB; Bacto Laboratories, catalog no. 234000) or Muller Hinton broth (MHB; Bacto Laboratories, catalog no. 211443) at 37 °C overnight with shaking (∼180 rpm). A sample of each culture was then diluted 50-fold in fresh MHB and incubated at 37 °C for 1.5–3 h with shaking (∼180 rpm). Compound stock solutions were prepared as 0.64 or 2.56 mg/mL in water. The compounds, at twice the final desired concentration, were serially diluted 2-fold across the wells of 96-well plates (Polystyrene, Corning, catalogue No. 3370). Mid log phase bacterial cultures (after 1.5–3 h incubation) were diluted to a final concentration of 5 × 10^5 colony forming units (CFU)/mL, and 50 μL was added to each well giving a final compound concentration range of 32 μg/mL to 0.015 μg/mL (128–0.06 μg/mL for colistin and polymyxin B against the polymyxin resistant clinical isolates). MICs were determined visually after 18 h of incubation at 37 °C, with the MIC defined as the lowest compound concentration at which no bacterial growth was visible.
(§2) Table S2. Bacterial strains used for Minimum Inhibitory Concentration (MIC) […]
(§3) Organism Strain Strain description Strain Source
(§4) Escherichia coli ATCC 25922 FDA strain Seattle 1946 ATCC
(§5) Klebsiella pneumoniae ATCC 13883 Control strain ATCC
(§6) Klebsiella pneumoniae ATCC 700603 Multi-drug resistant ATCC
(§7) Klebsiella pneumoniae BAA-2146 Metallo-beta-lactamase- ATCC
(§8) Acinetobacter baumannii ATCC 19606 Type strain ATCC
(§9) Pseudomonas aeruginosa ATCC 27853 Type strain ATCC
(§10) Pseudomonas aeruginosa FADDI-PA070 Clinical isolate, Nation and Li labs, polymyxin resistant Monash University
(§11) Clinical isolate, Wang Hengzhuang, Pseudomonas aeruginosa PA9704 polymyxin resistant University Hospital of […]
(§12) Ptyela Clinical isolate, Ilias Karaiskos and Acinetobacter baumannii Carbapenem & Helen Giamarellou
(§13) Clinical isolate, Medicine, Hygeia
(§14) Klebsiella pneumoniae Koprana Carbapenem, & General Hospital, […]
(§15) Clinical isolate, (Instituto Dante […]
(§16) polymyxin resistant Cardiologia, São […]

[2] = tested on: K. pneumoniae ATCC 700603, MDR; assay type: cell-based, Klebsiella pneumoniae; conditions: MHB, 5 × 10^5 CFU/mL, read visually after 18 h at 37 °C
Experimental: as §1, §2, §3, §4, §5, §6, §7, §8, §9, §10, §11, §12, §13, §14, §15, §16

[3] = tested on: K. pneumoniae ATTC BAA-2146, NDM-1 pos; assay type: cell-based, Klebsiella pneumoniae; conditions: MHB, 5 × 10^5 CFU/mL, read visually after 18 h at 37 °C
Experimental: as §1, §2, §3, §4, §5, §6, §7, §8, §9, §10, §11, §12, §13, §14, §15, §16

[4] = tested on: A. baumannii ATCC 19606; assay type: cell-based, Acinetobacter baumannii; conditions: MHB, 5 × 10^5 CFU/mL, read visually after 18 h at 37 °C
Experimental: as §1, §2, §3, §4, §5, §6, §7, §8, §9, §10, §11, §12, §13, §14, §15, §16

[5] = tested on: P. aeruginosa ATCC 27853; assay: microbe, parasite or virus in culture; assay type: cell-based, Pseudomonas aeruginosa; conditions: MHB, 5 × 10^5 CFU/mL, read visually after 18 h at 37 °C
Experimental: as §1, §2, §3, §4, §5, §6, §7, §8, §9, §10, §11, §12, §13, §14, §15, §16

[6] = tested on: P. aeruginosa FADDI-PA070, PmxR; assay type: cell-based, Pseudomonas aeruginosa
Experimental: as §1, §2, §3, §4, §5, §6, §7, §8, §9, §10, §11, §12, §13, §14, §15, §16

[7] = tested on: P. aeruginosa PA9704, PmxR; assay type: cell-based, Pseudomonas aeruginosa
Experimental: as §1, §2, §3, §4, §5, §6, §7, §8, §9, §10, §11, §12, §13, §14, §15, §16

[8] = tested on: A. baumannii CI Ptyela 100734512:2, PmxR; assay: microbe, parasite or virus in culture; assay type: cell-based, Acinetobacter baumannii
[9] = tested on: K. pneumoniae ATCC 13883; assay: microbe, parasite or virus in culture; assay type: cell-based, Klebsiella pneumoniae; conditions: MHB, 5 × 10^5 CFU/mL, read visually after 18 h at 37 °C
[10] = tested on: K. pneumoniae CI 138-16357-20362, PmxR; assay: microbe, parasite or virus in culture; assay type: cell-based, Klebsiella pneumoniae
[11] = tested on: K. pneumoniae CI Koprana 100650661:1, PmxR; assay: microbe, parasite or virus in culture; assay type: cell-based, Klebsiella pneumoniae
[12] = tested on: S. aureus ATCC 25923, MSSA; assay: microbe, parasite or virus in culture; assay type: cell-based, Staphylococcus aureus
[13] = tested on: HEK293 cells; assay: Cytotoxicity assay (resazurin assay); assay type: cell-based, human; conditions: 4000 cells/well, 24 h incubation with compound, fluorescence 560/590
[14] = tested on: HepG2 cells; assay: Cytotoxicity assay (resazurin assay); assay type: cell-based, human; conditions: 4000 cells/well, 24 h incubation with compound, fluorescence 560/590
[15] = tested on: primary human renal proximal tubule epithelial (hPT) cells; assay: Nephrotoxicity assay, LDH release; assay type: cell-based; conditions: primary human kidney cells
Source text: (§17) Primary human renal proximal tubule epithelial (hPT) cells were isolated and used for in vitro prediction of drug-induced nephrotoxicity[63],[64],[69] by measuring the release of metabolism enzymes, LDH and GGT, as previously described.[70]

[16] = tested on: primary human renal proximal tubule epithelial (hPT) cells; assay: Nephrotoxicity assay, GGT release; assay type: cell-based
Source text: as §17

[17] = tested on: A. baumannii CI Ptyela 100734512:2, PmxR; conditions: MIC A. baumannii CI Ptyela 100734512:2, PmxR (µg/mL)
[18] = tested on: K. pneumoniae CI 138-16357-20362, PmxR; conditions: MIC K. pneumoniae CI 138-16357-20362, PmxR (µg/mL)
[19] = tested on: K. pneumoniae CI Koprana 100650661:1, PmxR; conditions: MIC K. pneumoniae CI Koprana 100650661:1, PmxR (µg/mL)
[20] = tested on: P. aeruginosa FADDI-PA070, PmxR; conditions: MIC P. aeruginosa FADDI-PA070, PmxR (µg/mL)
[21] = tested on: P. aeruginosa PA9704, PmxR; conditions: MIC P. aeruginosa PA9704, PmxR (µg/mL)
[22] = tested on: S. aureus ATCC 25923, MSSA; conditions: MIC S. aureus ATCC 25923, MSSA (µg/mL)
[23] = tested on: HepG2; conditions: CC50 HepG2 (µM)
[24] = tested on: panel of predominantly G-ve bacteria; conditions: for most strains
[25] = polymyxin resistant clinical isolate, MHB, 5 × 10^5 CFU/mL, 18 h at 37 °C
[26] = carbapenem & polymyxin resistant clinical isolate, MHB, 5 × 10^5 CFU/mL, 18 h at 37 °C
[27] = Klebsiella pneumoniae, carbapenem & polymyxin resistant clinical isolate, MHB, 5 × 10^5 CFU/mL, 18 h at 37 °C

Compound: 6Me-C7CO/ 6Me-C6CO Dab Thr Dab Dab Dab D-Leu Leu Dab Dab (lariat or depsi) [Colistin 2, polymyxin E (colistin), macrocyclic lipodecapeptide antibiotic, D-Leu at position-6, reference compound]
MIC E. coli ATCC 25922 [1]: 0.25 µg/mL
MIC K. pneumoniae ATCC 700603, MDR [2]: 0.25 µg/mL
MIC K. pneumoniae ATTC BAA-2146, NDM-1 pos [3]: 0.25 µg/mL
MIC A. baumannii ATCC 19606 [4]: 0.25 µg/mL
MIC P. aeruginosa ATCC 27853 [5]: 0.5 µg/mL
MIC P. aeruginosa FADDI-PA070, PmxR [6, 25]: >32 µg/mL
MIC P. aeruginosa PA9704, PmxR [7, 25]: 128 µg/mL
MIC A. baumannii CI Ptyela 100734512:2, PmxR [8, 26]: >64 µg/mL
MIC K. pneumoniae ATCC 13883 [9]: 0.25 µg/mL
MIC K. pneumoniae CI 138-16357-20362, PmxR [10, 26]: 64 µg/mL
MIC K. pneumoniae CI Koprana 100650661:1, PmxR [11, 26]: >128 µg/mL
MIC S. aureus ATCC 25923, MSSA ([12]; MHB, 5 × 10^5 CFU/mL, read visually after 18 h at 37 °C): >128 µg/mL
HEK293 CC50 [13]: >300 µM
HepG2 - CC50 [14]: >300 µM
LDH release CC50 [15]: 25 µg/mL
GGT release CC50 ([16]; primary human kidney cells): 48 µg/mL

Compound: CCCCCCCC(=O)N[C@@H](CCN)C(=O)N[C@H](C(=O)NCC(=O)N[C@H]1CCNC(=O)[C@H]([C@@H](C)O)NC(=O)[C@H](CCN)NC(=O)[C@H](CCN)NC(=O)[C@H](CC(C)C)NC(=O)[C@@H](Cc2ccccc2)NC(=O)[C@H](CCN)NC1=O)[C@@H](C)O [Compound 38] (Octanoyl-[Dab]TG[Dab][Dab][dF]L[Dab][Dab]T; lactam 4-C)
MIC [17]: > 32 µg/mL
MIC [18]: > 32 µg/mL
MIC [19]: > 32 µg/mL
MIC [20]: > 32 µg/mL
MIC [21]: > 32 µg/mL
MIC [22]: > 64 µg/mL
CC50 [23]: > 300 µM
MIC P. aeruginosa FADDI-PA070, PmxR ([6]; FADDI-PA070, PmxR, 18 h): >32 µg/mL
MIC P. aeruginosa PA9704, PmxR ([7]; PA9704, PmxR, 18 h): >32 µg/mL
MIC A. baumannii CI Ptyela 100734512:2, PmxR ([8]; CI Ptyela 100734512:2, PmxR, 18 h): >32 µg/mL
MIC K. pneumoniae CI 138-16357-20362, PmxR ([10]; CI 138-16357-20362, PmxR, 18 h): >32 µg/mL
MIC K. pneumoniae CI Koprana 100650661:1, PmxR ([11]; CI Koprana 100650661:1, PmxR, 18 h): >32 µg/mL
MIC S. aureus ATCC 25923, MSSA ([12]; ATCC 25923, 18 h): >64 µg/mL
HepG2 - CC50 [14]: > 300 µM
GGT release CC50 [16]: >128 µg/mL
MIC among the reference strains [24]: 0.5 to 2 µg/mL

MIC ([1]; Escherichia coli, ATCC25922, 18 h): 0.25 µg/mL (≈ 0.523 µM)
MIC ([5]; Pseudomonas aeruginosa, ATCC27853): 1 µg/mL (≈ 2.09 µM)
MIC ([8]; Acinetobacter baumannii, carbapenem & polymyxin resistant clinical isolate, MHB, 5 × 10^5 CFU/mL, 18 h at 37 °C): > 32 µg/mL
MIC ([9]; Klebsiella pneumoniae, ATCC13883): 0.25 µg/mL (≈ 0.523 µM)
MIC [10, 27]: 1 µg/mL (≈ 2.09 µM)
MIC [11, 27]: > 32 µg/mL
Compound: CNC(C)C1CCC(N)C(OC2C(N)CC(N)C(OC3OCC(C)(O)C(NC)C3O)C2O)O1 (stereo not drawn) [Gentamicin, reference compound]
HEK293 CC50 [13]: >300 µM
HepG2 - CC50 [14]: >300 µM
LDH release CC50 [15]: 33 µg/mL
GGT release CC50 ([16]; primary human kidney cells): 33 µg/mL
